Legend:
[1] = system: COPD patients; test: Clinical pharmacology studies of Compound (I) in COPD patients (FEV1); type: in vivo, human; settings: 100 mcg and 400 mcg, with lactose alone
Description: (§1) Compound (I) as the α-phenylcinnamate salt and the triphenylacetate salt has been studied in a number of clinical pharmacology studies, including single- and repeat-dose studies. In addition, these studies have evaluated Compound (I) with the excipients cellobiose octaacetate and magnesium stearate.
In COPD patients, treatment with 100 mcg and 400 mcg Compound (I) alpha-phenylcinnamate (with lactose alone) achieved a clinically relevant adjusted mean difference from placebo in weighted mean trough FEV1 (22 to 24 hrs) of >100 mL.

[2] = system: beta-2 adrenoreceptor; test: Animal and human studies of Compound (I): bronchodilation and safety; type: in vivo
[3] = system: asthmatic patients; test: Clinical pharmacology studies of Compound (I) in asthmatic patients (FEV1); type: in vivo, human; settings: all doses of Compound (I)
Description: as §1
In one study in asthmatic patients 100 mcg of Compound (I) triphenylacetate formulated with lactose and magnesium stearate has shown a favourable onset of action.

[4] = Studies of Compound (II) in animal models and humans; type: in vivo
[5] = system: asthmatic patients; test: Clinical pharmacology studies of Compound (II) in asthmatic patients (FEV1); type: in vivo, human; settings: doses of from 100 to 400 mcg
Description: Compound (II) has been studied in a number of clinical pharmacology studies, including single- and repeat-dose studies and at a range of doses. In addition, these studies have evaluated Compound (II) with the excipients cellobiose octaacetate and magnesium stearate.

O=C(O)C(=Cc1ccccc1)c1ccccc1.OCc1cc([C@@H](O)CNCCCCCCOCCOCc2c(Cl)cccc2Cl)ccc1O [Compound (I) alpha-phenylcinnamate, 4-{(1R)-2-[(6-{2-[(2,6-dichlorobenzyl)oxy]ethoxy}hexyl)amino]-1-hydroxyethyl}-2-(hydroxymethyl)phenol α-phenylcinnamate]
adjusted mean difference from placebo in weighted mean trough FEV1 (22 to 24 hrs) [1]: > 100 mL

OCc1cc([C@@H](O)CNCCCCCCOCCOCc2c(Cl)cccc2Cl)ccc1O [Compound (I), 4-{(1R)-2-[(6-{2-[(2,6-dichlorobenzyl)oxy]ethoxy}hexyl)amino]-1-hydroxyethyl}-2-(hydroxymethyl)phenol]
bronchodilation [2]: sustained bronchodilation over a 24 hour period | safety profile [2]: favourable safety profile | improvement in trough (24-hour) FEV1 compared to placebo [3]: statistically and clinically significant improvement

C[C@@H]1CC2C3C[C@H](F)C4=CC(=O)C=C[C@]4(C)[C@@]3(F)[C@@H](O)C[C@]2(C)[C@@]1(OC(=O)c1ccco1)C(=O)SCF (stereo partly drawn) [Compound (II), 6α, 9α-difluoro-17α-[(2-furanylcarbonyl)oxy]-11β-hydroxy-16α-methyl-3-oxo-androsta-1,4-diene-17β-carbothioic acid S-fluoromethyl ester]
duration of action (inhaled glucocorticosteroid) [4]: long acting | improvement in trough (24-hour) FEV1 compared to placebo [5]: statistically and clinically significant improvement
